PubChem BioAssay (NCI)
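GI50 is the concentration that inhibits growth by half. TGI is the concentration that stops growth completely.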

Assays:
Experiment in all cases: NCI tumour cell line growth inhibition, 384-well format
SNB-75 CNS = system: SNB-75 CNS
MDA-MB-435 melanoma = system: MDA-MB-435 melanoma
MDA-MB-468 breast = system: MDA-MB-468 breast
786-0 renal = system: 786-0 renal
UACC-62 melanoma = system: UACC-62 melanoma
NCI-H226 lung = system: NCI-H226 lung
DU-145 prostate = system: DU-145 prostate
TK-10 renal = system: TK-10 renal
MCF7 breast = system: MCF7 breast
SF-268 CNS = system: SF-268 CNS
SN12C renal = system: SN12C renal
NCI-H460 NSCLC = system: NCI-H460 NSCLC
OVCAR-8 ovarian = system: OVCAR-8 ovarian
A498 renal = system: A498 renal
M14 melanoma = system: M14 melanoma
IGROV1 ovarian = system: IGROV1 ovarian
A549 NSCLC = system: A549 NSCLC
NCI-H23 lung = system: NCI-H23 lung
EKVX NSCLC = system: EKVX NSCLC
ACHN renal = system: ACHN renal
SK-MEL-5 melanoma = system: SK-MEL-5 melanoma
COLO 205 colon = system: COLO 205 colon
SF-295 CNS = system: SF-295 CNS
CAKI-1 renal = system: CAKI-1 renal
UACC-257 melanoma = system: UACC-257 melanoma
HT29 colon = system: HT29 colon
OVCAR-3 ovarian = system: OVCAR-3 ovarian
HOP-62 NSCLC = system: HOP-62 NSCLC
HL-60(TB) leukemia = system: HL-60(TB) leukemia
NCI-H522 lung = system: NCI-H522 lung
KM12 colon = system: KM12 colon
HOP-92 NSCLC = system: HOP-92 NSCLC
MALME-3M melanoma = system: MALME-3M melanoma
MOLT-4 leukemia = system: MOLT-4 leukemia
OVCAR-4 ovarian = system: OVCAR-4 ovarian
BT-549 breast = system: BT-549 breast
HCC-2998 colon = system: HCC-2998 colon
OVCAR-5 ovarian = system: OVCAR-5 ovarian
HS 578T breast = system: HS 578T breast
SF-539 CNS = system: SF-539 CNS
U251 glioblastoma = system: U251 glioblastoma
SK-MEL-28 melanoma = system: SK-MEL-28 melanoma
T-47D breast = system: T-47D breast
SW-620 colon = system: SW-620 colon
HCT-15 colon = system: HCT-15 colon
SR leukemia = system: SR leukemia
NCI-H322M lung = system: NCI-H322M lung
MDA-MB-231 breast = system: MDA-MB-231 breast
NCI/ADR-RES ovarian = system: NCI/ADR-RES ovarian
RPMI-8226 leukemia = system: RPMI-8226 leukemia
SK-MEL-2 melanoma = system: SK-MEL-2 melanoma
SK-OV-3 ovarian = system: SK-OV-3 ovarian
CCRF-CEM leukemia = system: CCRF-CEM leukemia
PC-3 prostate = system: PC-3 prostate
SNB-19 CNS = system: SNB-19 CNS
RXF 393 renal = system: RXF 393 renal

Work on `NCC(=O)CCC(=O)O` yielded a GI50 (SNB-75 CNS) greater than 100 µM, a TGI (SNB-75 CNS) greater than 100 µM and a GI50 (MDA-MB-435 melanoma) greater than 100 µM. For the same compound, the TGI (MDA-MB-435 melanoma) was greater than 100 µM, the GI50 (MDA-MB-468 breast) was 26.7 µM and the TGI (MDA-MB-468 breast) was 74.7 µM. For the same compound, the GI50 (786-0 renal) was greater than 100 µM, the TGI (786-0 renal) was greater than 100 µM and the GI50 (UACC-62 melanoma) was greater than 100 µM. For the same compound, the TGI (UACC-62 melanoma) was greater than 100 µM, the GI50 (NCI-H226 lung) was greater than 100 µM and the TGI (NCI-H226 lung) was greater than 100 µM. For the same compound, the GI50 (DU-145 prostate) was greater than 100 µM, the TGI (DU-145 prostate) was greater than 100 µM and the GI50 (TK-10 renal) was greater than 100 µM. For the same compound, the TGI (TK-10 renal) was greater than 100 µM, the GI50 (MCF7 breast) was greater than 100 µM and the TGI (MCF7 breast) was greater than 100 µM. For the same compound, the GI50 (SF-268 CNS) was greater than 100 µM, the TGI (SF-268 CNS) was greater than 100 µM and the GI50 (SN12C renal) was greater than 100 µM. For the same compound, the TGI (SN12C renal) was greater than 100 µM, the GI50 (NCI-H460 NSCLC) was greater than 100 µM and the TGI (NCI-H460 NSCLC) was greater than 100 µM. For the same compound, the GI50 (OVCAR-8 ovarian) was greater than 100 µM, the TGI (OVCAR-8 ovarian) was greater than 100 µM and the GI50 (A498 renal) was greater than 100 µM. It also gave a TGI (A498 renal) greater than 100 µM, a GI50 (M14 melanoma) greater than 100 µM and a TGI (M14 melanoma) greater than 100 µM. The GI50 (IGROV1 ovarian) was greater than 100 µM, the TGI (IGROV1 ovarian) was greater than 100 µM and the GI50 (A549 NSCLC) was greater than 100 µM. For the same compound, the TGI (A549 NSCLC) was greater than 100 µM, the GI50 (NCI-H23 lung) was greater than 100 µM and the TGI (NCI-H23 lung) was greater than 100 µM. The GI50 (EKVX NSCLC) was greater than 100 µM, the TGI (EKVX NSCLC) was greater than 100 µM and the GI50 (ACHN renal) was greater than 100 µM. For the same compound, the TGI (ACHN renal) was greater than 100 µM, the GI50 (SK-MEL-5 melanoma) was greater than 100 µM and the TGI (SK-MEL-5 melanoma) was greater than 100 µM. It also gave a GI50 (COLO 205 colon) greater than 100 µM, a TGI (COLO 205 colon) greater than 100 µM and a GI50 (SF-295 CNS) greater than 100 µM. For the same compound, the TGI (SF-295 CNS) was greater than 100 µM, the GI50 (CAKI-1 renal) was greater than 100 µM and the TGI (CAKI-1 renal) was greater than 100 µM. It also gave a GI50 (UACC-257 melanoma) greater than 100 µM, a TGI (UACC-257 melanoma) greater than 100 µM and a GI50 (HT29 colon) greater than 100 µM. It also gave a TGI (HT29 colon) greater than 100 µM, a GI50 (OVCAR-3 ovarian) greater than 100 µM and a TGI (OVCAR-3 ovarian) greater than 100 µM. The GI50 (HOP-62 NSCLC) was greater than 100 µM, the TGI (HOP-62 NSCLC) was greater than 100 µM and the GI50 (HL-60(TB) leukemia) was greater than 100 µM. It also gave a TGI (HL-60(TB) leukemia) greater than 100 µM, a GI50 (NCI-H522 lung) greater than 100 µM and a TGI (NCI-H522 lung) greater than 100 µM. For the same compound, the GI50 (KM12 colon) was greater than 100 µM, the TGI (KM12 colon) was greater than 100 µM and the GI50 (HOP-92 NSCLC) was greater than 100 µM. It also gave a TGI (HOP-92 NSCLC) greater than 100 µM, a GI50 (MALME-3M melanoma) greater than 100 µM and a TGI (MALME-3M melanoma) greater than 100 µM. For the same compound, the GI50 (MOLT-4 leukemia) was 73.2 µM, the TGI (MOLT-4 leukemia) was greater than 100 µM and the GI50 (OVCAR-4 ovarian) was 62.9 µM. The TGI (OVCAR-4 ovarian) was greater than 100 µM, the GI50 (BT-549 breast) was greater than 100 µM and the TGI (BT-549 breast) was greater than 100 µM. It also gave a GI50 (HCC-2998 colon) greater than 100 µM, a TGI (HCC-2998 colon) greater than 100 µM and a GI50 (OVCAR-5 ovarian) greater than 100 µM. It also gave a TGI (OVCAR-5 ovarian) greater than 100 µM, a GI50 (HS 578T breast) greater than 100 µM and a TGI (HS 578T breast) greater than 100 µM. The GI50 (SF-539 CNS) was greater than 100 µM, the TGI (SF-539 CNS) was greater than 100 µM and the GI50 (U251 glioblastoma) was greater than 100 µM. For the same compound, the TGI (U251 glioblastoma) was greater than 100 µM, the GI50 (SK-MEL-28 melanoma) was greater than 100 µM and the TGI (SK-MEL-28 melanoma) was greater than 100 µM. For the same compound, the GI50 (T-47D breast) was greater than 100 µM, the TGI (T-47D breast) was greater than 100 µM and the GI50 (SW-620 colon) was greater than 100 µM. The TGI (SW-620 colon) was greater than 100 µM, the GI50 (HCT-15 colon) was greater than 100 µM and the TGI (HCT-15 colon) was greater than 100 µM. For the same compound, the GI50 (SR leukemia) was greater than 100 µM, the TGI (SR leukemia) was greater than 100 µM and the GI50 (NCI-H322M lung) was greater than 100 µM. It also gave a TGI (NCI-H322M lung) greater than 100 µM, a GI50 (MDA-MB-231 breast) greater than 100 µM and a TGI (MDA-MB-231 breast) greater than 100 µM. It also gave a GI50 (NCI/ADR-RES ovarian) greater than 100 µM, a TGI (NCI/ADR-RES ovarian) greater than 100 µM and a GI50 (RPMI-8226 leukemia) greater than 100 µM. The TGI (RPMI-8226 leukemia) was greater than 100 µM, the GI50 (SK-MEL-2 melanoma) was greater than 100 µM and the TGI (SK-MEL-2 melanoma) was greater than 100 µM. For the same compound, the GI50 (SK-OV-3 ovarian) was 45.2 µM, the TGI (SK-OV-3 ovarian) was greater than 100 µM and the GI50 (CCRF-CEM leukemia) was 62.4 µM. It also gave a TGI (CCRF-CEM leukemia) greater than 100 µM, a GI50 (PC-3 prostate) greater than 100 µM and a TGI (PC-3 prostate) greater than 100 µM. For the same compound, the GI50 (SNB-19 CNS) was greater than 100 µM, the TGI (SNB-19 CNS) was greater than 100 µM and the GI50 (RXF 393 renal) was greater than 100 µM. For the same compound, the TGI (RXF 393 renal) was greater than 100 µM.
